Measured values as given in patent US9682995B2, “Amino-substituted isothiazoles” (BAYER PHARMA AKTIENGESELLSCHAFT, priority 2013, dated 2017).

Legend:
CDK2/CycE = CDK2/CycE (Homo sapiens (Human), UniProt P24941); experiment: CDK2/CycE kinase assay (TR-FRET); type: biochemical; settings: 10 μM ATP; read-out: CDK2 avg (IC50 [mol/l])
In short: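 GST-tagged human CDK2 and GST-CycE from Sf9 cells (~130 ng/ml) were preincubated with compound for 15 min at 22 °C. Reaction with 10 μM ATP and 0.75 μM biotinylated peptide (final) ran 25 min at 22 °C, pH 8.0. Phospho-peptide was read by TR-FRET (665/620 nm ratio, anti-pRB antibody, Eu donor) and normalised to no-enzyme and no-inhibitor controls.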

[1] = system: spindle assembly checkpoint; experiment: SAC-Formation - Nocodazole-Induced Assay; type: cell-based; settings: Homo sapiens; HeLa cells, nocodazole 0.1 μg/ml, 24 h, phosphorylated histone H3 on serine 10
In short: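 HeLa cells were given nocodazole at 0.1 μg/ml final together with compounds (0.005–20 μM, 0.5% DMSO) for 24 h at 37° C. Mitotic cells were counted by phospho-histone H3 Ser10 immunostaining, with cell number from HOECHST 33342, by high-content imaging. The loss of mitotic cells was fitted with a four-parameter Hill equation.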

| IC50 (CDK2/CycE) [nM] | IC50 [1] [nM] | SMILES |
| --- | --- | --- |
| 6500 | 8.2 | Cc1nsc(Nc2ccc(C#N)cn2)c1C(=O)Nc1ccc(Cl)c(Cl)c1 [Example 62, 5-[(5-Cyanopyridin-2-yl)amino]-N-(3,4-dichlorophenyl)-3-methyl-1,2-thiazole-4-carboxamide] |
| > 20000 | 180 | Cc1nsc(Nc2cncc(-c3ncco3)n2)c1C(=O)Nc1ccc(Cl)c(F)c1 [Example 63, N-(4-Chloro-3-fluorophenyl)-3-methyl-5-{[6-(1,3-oxazol-2-yl)pyrazin-2-yl]amino}-1,2-thiazole-4-carboxamide] |
| > 20000 | 390 | CCNc1cncc(Nc2snc(C)c2C(=O)Nc2ccc(F)c(F)c2)n1 [Example 78, N-(3,4-Difluorophenyl)-5-{[6-(ethylamino)pyrazin-2-yl]amino}-3-methyl-1,2-thiazole-4-carboxamide] |
| > 20000 | 260 | COC(=O)c1cnc(Nc2snc(C)c2C(=O)Nc2ccc(F)c(F)c2)cn1 [Example 59, Methyl 5-({4-[(3,4-difluorophenyl)carbamoyl]-3-methyl-1,2-thiazol-5-yl}amino)-pyrazine-2-carboxylate] |
| > 20000 | 1400 | COc1ccc(NC(=O)c2c(C)nsc2Nc2nc3cccnc3s2)cn1 [Example 89, N-(6-Methoxypyridin-3-yl)-3-methyl-5-([1,3]thiazolo[5,4-b]pyridin-2-ylamino)-1,2-thiazole-4-carboxamide] |

Continued, compound first:

| SMILES | IC50 (CDK2/CycE) [nM] | IC50 [1] [nM] |
| --- | --- | --- |
| COc1ccc(NC(=O)c2c(C)nsc2Nc2cnc(C(F)(F)F)cn2)cn1 [Example 85, N-(6-methoxypyridin-3-yl)-3-methyl-5-{[5-(trifluoromethyl)pyrazin-2-yl]amino}-1,2-thiazole-4-carboxamide] | > 20000 | 6.2 |
| COc1ccc(NC(=O)c2c(C)nsc2Nc2cncc(C(F)(F)F)n2)cn1 [Example 84, N-(6-methoxypyridin-3-yl)-3-methyl-5-{[6-(trifluoromethyl)pyrazin-2-yl]amino}-1,2-thiazole-4-carboxamide] | > 20000 | 58 |
| Cc1nsc(Nc2ccc(C(F)(F)F)nn2)c1C(=O)Nc1ccc(F)c(F)c1 [Example 83, N-(3,4-Difluorophenyl)-3-methyl-5-{[6-(trifluoromethyl)pyridazin-3-yl]amino}-1,2-thiazole-4-carboxamide] | > 20000 | 7 |
| COc1ccc(NC(=O)c2c(C)nsc2Nc2nc3ccc(C)cc3s2)cn1 [Example 90, N-(6-Methoxypyridin-3-yl)-3-methyl-5-[(6-methyl-1,3-benzothiazol-2-yl)amino]-1,2-thiazole-4-carboxamide] | > 20000 | 4200 |
